# Read-outs that look alike come from different tables or passages of the source.
# What was measured:
# [1] = tested on: pathology after acute treatment with anti-CTLA-4 monoclonal antibody; assay: acute anti-CTLA-4 treatment in 8-10 week-old Il10−/− mice, without DSS; assay type: in vivo
# Method: Il10^−/− mice were treated with anti-CTLA-4 monoclonal antibody and 3-IAld alone, as above (FIG. 6), without DSS. Animals were monitored daily for body weight and inflammatory pathology in the colon and sacrificed at 14 days after the first anti-CTLA-4 monoclonal antibody administration.
# [2] = tested on: graft-versus-host disease (GvHD); details: mouse, in vivo; cited from earlier work
# immune-mediated colitis [3] = assay: immune-mediated colitis in Rag1−/− mice infused with CD4+ T cells and treated with anti-CTLA-4 mAb; assay type: in vivo
# Method: Immunodeficient Rag1^−/− mice reconstituted with naïve CD4^+ T cells and treated with anti-CTLA-4 monoclonal antibody. Rag1−/− mice, mice homozygous for the RagltmlMom mutation produce no mature T cells or B cells. Their phenotype can be described as a “non-leaky” immune deficiency. Rag1−/− 8-10 weeks old mice were injected intraperitoneally with 4×10^5 naïve CD4^+ T cells purified from spleens of C57BL/6 mice and treated with anti-CTLA-4 mAb or control IgG the day after T-cell reconstitution and then at days 0, 4, 8, 12, and 16. […] Mice were monitored daily for overall mortality and body weight loss and sacrificed on day 21.
# AhR = details: cited from earlier work
# [4] = tested on: colitis, gastrointestinal and vaginal candidiasis; details: mouse, in vivo; cited from earlier work
# immune-mediated colitis [5] = assay: immune-mediated colitis in NSG mice infused with hPBMCs and treated with anti-CTLA-4 mAb; assay type: in vivo
# Method: Humanized immunodeficient NSG mice were injected with human peripheral blood mononuclear cells from healthy donors and treated with anti-CTLA-4 monoclonal antibody. NOD.Cg-Prkdcscid Il2rgtm1Wjl/SzJ (NSG) mice, 8-10 weeks old, were injected intraperitoneally with human peripheral blood mononuclear cells (107) freshly isolated from healthy donors and treated intraperitoneally with 100 μg of anti-CTLA-4 mAb or human IgG as antibody control at days 0, 4, 8, 12 and 16.
# 3-IAld (18 mg/kg) was administered intragastrically every other day starting the day of cell infusion. Mice were monitored daily for overall mortality and body weight loss and sacrificed on day 21.
# [6] = 3-IAld 18 mg/kg intragastrically every other day, 21 days
structure (smiles),measurement,setting,value
"O=Cc1c[nH]c2ccccc12 [3-IAld, 1H-indole-3-carbaldehyde]",pathology after acute anti-CTLA-4 treatment (overall),[1]; 3-IAld,protects
same,body weight loss,"[1]; 3-IAld as in the DSS model, 14 days",prevented
same,inflammatory pathology (colon),"[1]; 3-IAld, 14 days",ameliorated
same,massive cellular infiltrate (submucosa),"[1]; 3-IAld, 14 days",reducing
same,gut epithelial damage,[2],limited
same,inflammatory cytokine production,[2],decreased
same,transepithelial bacterial translocation,[2],reduced
same,progression of immune-mediated colitis (overall),immune-mediated colitis [3]; 3-IAld 18 mg/kg,limits progression
same,weight loss,immune-mediated colitis [3]; [6],reduced
same,colon histopathology,"immune-mediated colitis [3]; 3-IAld 18 mg/kg, day 21",improved
same,gross pathology,"immune-mediated colitis [3]; 3-IAld 18 mg/kg, day 21",improved
same,dose range inducing luciferase activity,AhR; as printed in b215,0.1 to 100 mM
same,dose range inducing luciferase activity,AhR; as printed in b238,0.0001 to 0.1 mM
same,barrier integrity and production of antimicrobial peptides,[4],enhanced
same,immune-mediated colitis (overall),immune-mediated colitis [5]; 3-IAld 18 mg/kg,protects mice from immune-mediated colitis
same,survival,immune-mediated colitis [5]; [6],increased
same,weight loss,immune-mediated colitis [5]; [6],reduced
same,histology score,"immune-mediated colitis [5]; 3-IAld 18 mg/kg, colon, day 21",improved
same,inflammatory histopathology,"immune-mediated colitis [5]; 3-IAld 18 mg/kg, colon, day 21",improved
same,barrier function (expression of ZO-1),"immune-mediated colitis [5]; 3-IAld 18 mg/kg, day 21",restored
same,inflammatory cytokine gene expression,"immune-mediated colitis [5]; 3-IAld 18 mg/kg, day 21",decreased

# From patent publication US20250090498A1, “TREATMENT OF PRIMARY CTLA-4 CHECKPOINT RELATED IMMUNODEFICIENCIES” (ADIENNE PHARMA & BIOTECH SA, priority 2023, published 2025)
